Assay [1] deals with T1, hNEDD4-WW3 (Homo sapiens, UniProt P46934).
T1 construct: comprising aminoacids 834–878 (UniProtKB/Swiss-Prot code P46934); GST-His (pETM-30, TEV site) (N, cleaved yes); made in house; host or cells: E. coli BL21/DE3 is printed only for the pETM-11 NMR construct
To be noted: cited from earlier work.

Assay [2] deals with T1, hNEDD4-WW3. The experiment in a line: biochemical. It is filed as binding.
Assay [3] concerns the target T1, hNEDD4-WW3.
The target of assay [4] is T2, hYAP-WW2 (Homo sapiens, UniProt P46937).
T2 construct: comprising aminoacids 165–209 and 228–271 respectively (UniProtKB/Swiss-Prot code Q7Z574); GST-His (pETM-30, TEV site) (N, cleaved yes); made in house
In kind it is binding. To be noted: pH 7.

For assay [5], the target named is T3, hYAP-WW1 (Homo sapiens, UniProt P46937).
T3 construct: comprising aminoacids 165–209 and 228–271 respectively (UniProtKB/Swiss-Prot code Q7Z574); GST-His (pETM-30, TEV site) (N, cleaved yes); made in house
Kind of assay: biochemical. It is filed as binding.

The target of assay [6] is T1, hNEDD4-WW3. The experiment in a line: biochemical. It is filed as binding. This is another data set of the same source.
The target of assay [7] is T3, hYAP-WW1. Conditions: cited from earlier work.
The target of assay [8] is T3, hYAP-WW1. In kind it is binding. Conditions: pH 7.
The target in assay [9] is dNEDD4-WW3. Conditions: cited from earlier work.
Assay [10] deals with SMURF2-WW3. Conditions: cited from earlier work.
Assay [11] deals with T2, hYAP-WW2. Conditions: cited from earlier work.
In assay [12] the target is SMURF1-WW2. Conditions: cited from earlier work.
Assay [13] deals with NEDD4L-WW2. To be noted: cited from earlier work.
The target in assay [14] is SU(dx)-WW4. Conditions: cited from earlier work.
In assay [15] the target is hITCHY-WW3. Conditions: cited from earlier work.
Assay [16] concerns the target rNEDD4-WW2. To be noted: cited from earlier work.
The target in assay [17] is hNEDD4L-WW3. To be noted: cited from earlier work.

Values joined by “and” are separate entries in the source; they are usually repeats but may differ in a detail not shown here. Equal values may be shown once. Read-outs that look alike come from different tables or passages of the source. Residues, ends and D or L forms follow the SMILES beside them. No end group written: not given here.

T2 sequence (P46937 228-271): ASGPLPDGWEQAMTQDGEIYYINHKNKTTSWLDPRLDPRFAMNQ
T3 sequence (P46937 165-209): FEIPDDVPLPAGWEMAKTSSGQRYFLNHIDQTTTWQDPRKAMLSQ
T1 sequence (P46934 834-878): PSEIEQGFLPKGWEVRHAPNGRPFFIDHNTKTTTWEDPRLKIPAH

What is called Kd is the constant that tells how readily two partners part at equilibrium. For “GSTLPIPGTPPPNYDSL [βENaC, βENaC peptide of literature complex 1I5H]”, the equilibrium dissociation constant (Kd) in assay [1] was 21 µM.
As to `CC[C@H](C)[C@H](NC(=O)[C@H](CCC(N)=O)NC(=O)[C@@H]1CCCN1C(=O)[C@H](CC(=O)O)NC(=O)[C@H](CO)NC(C)=O)C(=O)N1CCC[C@H]1C(=O)N1CCC[C@H]1C(=O)N1CCC[C@H]1C(=O)N[C@@H](Cc1ccc(O)cc1)C(=O)N[C@H](C(=O)N[C@@H](CCC(=O)O)C(=O)N1CCC[C@H]1C(N)=O)C(C)C` [HTLV1] (Ac-SDPQIPPPYVEP-NH2), the “ΔΔH HTLV-Ebola” value in [2] was −20 kJ/mol^−1. Further, in assay [3], the “amount by which theoretical enthalpy is smaller than the experimental enthalpy” value worked out at 12 kcal/mol and the ΔH conf is reported as -49,97 kJ·mol -1.
As for `CC(=O)N1CCC[C@H]1C(=O)N1CCC[C@H]1C(=O)N1CCC[C@H]1C(=O)N[C@@H](Cc1ccc(O)cc1)C(N)=O` [PPPY] (Ac-PPPY-NH2), the Kd entry in assay [4] is “n. b”; in [5], 320 ± 30 µM; in assay [6], 201 µM. Further, the ΔHap entry in assay [5] (pH 7) is “^*−39 ± 3 kJ mol^−1”; in assay [6] (pH 7), “^*−38 ± 1 kJ mol^−1”.
As to “GTPPPPYTVG [WBP1, WBP1 peptide of literature complex 1JMQ]”, in assay [7], the Kd was 40 µM.
On to “TAPPPAYATLG [αENaC, αENaC PY motif peptide of literature complex 2M30]”, for which, in [1], the Kd is 45 µM and the “ΔH exp (25C)” value was -58,2 kJ·mol -1. In addition, the ΔH conf in [3] is given as -48,29 kJ·mol -1.
Regarding `CC[C@H](C)[C@H](NC(C)=O)C(=O)N[C@@H](CC(C)C)C(=O)N1CCC[C@H]1C(=O)N[C@H](C(=O)N[C@@H](C)C(=O)N1CCC[C@H]1C(=O)N1CCC[C@H]1C(=O)N[C@@H](CCC(=O)O)C(=O)N[C@@H](Cc1ccc(O)cc1)C(=O)N[C@@H](CCSC)C(=O)N[C@@H](CCC(=O)O)C(=O)N[C@@H](C)C(N)=O)[C@@H](C)O` [Ebola], in assay [3], the “amount by which theoretical enthalpy is smaller than the experimental enthalpy” value stood at 7.17 kcal/mol and the ΔH conf is recorded as -30,01 kJ·mol -1.
For `CC(=O)N[C@@H](CC(=O)O)C(=O)N[C@@H](CC(C)C)C(=O)N[C@@H](Cc1c[nH]c2ccccc12)C(=O)N[C@@H](CC(C)C)C(=O)N1CCC[C@H]1C(=O)N1CCC[C@H]1C(=O)N1CCC[C@H]1C(=O)N[C@@H](CCC(=O)O)C(=O)N[C@@H](Cc1ccc(O)cc1)C(=O)N[C@H](C(=O)N1CCC[C@H]1C(=O)N[C@@H](CC(C)C)C(N)=O)C(C)C` [Rabies], the dissociation constant (Kd) entry is “n. b” in [4] and 51 ± 1 µM in assay [2]. Further, the ΔHap in assay [2] (pH 7) was -15.7 ± 0.19 kcal/mol; in assay [8] it was -15.2 ± 0.22 kcal/mol.
In the case of “GPPPY ({n‑octyl}-GPPPY) [peptide of literature complex 1K9Q]”, the Kd in assay [7] was 700 µM.
For “TGLPSYDEALH [Comm, Comm PY motif peptide of literature complex 2EZ5]”, the Kd in assay [9] is 3.1 µM.
Compound `CSCC[C@H](NC(C)=O)C(=O)N[C@@H](CCC(N)=O)C(=O)N[C@@H](Cc1ccc(O)cc1)C(=O)N[C@@H](CC(C)C)C(=O)N[C@@H](CC(N)=O)C(=O)N1CCC[C@H]1C(=O)N1CCC[C@H]1C(=O)N1CCC[C@H]1C(=O)N[C@@H](Cc1ccc(O)cc1)C(=O)N[C@@H](C)C(=O)N[C@@H](CC(=O)O)C(=O)N[C@@H](Cc1c[nH]cn1)C(N)=O` [Marburg] had a Kd in assay [2] of 51 ± 1 µM. The same compound registered a ΔHap in [2] (pH 7) of -17.5 ± 0.17 kcal/mol.
Turning to “PLPPY [peptide of literature complex 1K9R]”, the Kd in [7] was 500 µM.
In the case of “ELESPPPPYSRYPMD [Smad7, Smad7 peptide […] of literature complexes 2LTY, 2LTX, 2LTZ, 2LTV, 2LTW]”, the dissociation constant Kd in [10] was 4.5 µM; in assay [7], 6.9 µM; in [11] it was 60 µM; in [12] it was 4.2 µM; in assay [13] it was 4.2 µM.
“NTGAKQPPSYEDCIK [Notch, Notch peptide of literature complex 2JMF]”: the Kd in assay [14] is 45 µM.
Regarding `CC(=O)N1CCC[C@H]1C(=O)N1CCC[C@H]1C(=O)N1CCC[C@H]1C(=O)N[C@@H](Cc1ccc(O)cc1)C(=O)N[C@H](C(=O)N[C@@H](CCC(=O)O)C(=O)N1CCC[C@H]1C(=O)N[C@H](C(=O)N[C@@H](C)C(=O)N1CCC[C@H]1C(N)=O)[C@@H](C)O)C(C)C` [HTLV1 ter] (Ac-PPPYVEPTAP-NH2), the Kd entry in assay [4] and in assay [8] was “n. b” in each case. The ΔHap in assay [2] (pH 7) was -17.7 ± 0.19 kcal/mol.
Regarding RPE−5AP−3P−2SY0AEVVT [ARRDC3], the “ΔH exp (25C)” value in [1] is -75,4 kJ·mol -1. Besides, the ΔH conf in [3] is -64,67 kJ·mol -1.
Consider “RPE−5AP−3P−2SY0AEVVT (RPEAPPSYAEVVT) [ARRDC3]”, for which the Kd in [1] was 3.3 µM and 3 µM.
Compound `CC(=O)N[C@@H](CCC(=O)O)C(=O)N[C@@H](Cc1ccc(O)cc1)C(=O)N1CCC[C@H]1C(=O)N1CCC[C@H]1C(=O)N[C@@H](Cc1ccc(O)cc1)C(=O)N1CCC[C@H]1C(=O)N1CCC[C@H]1C(=O)N1CCC[C@H]1C(=O)N1CCC[C@H]1C(=O)N[C@@H](Cc1ccc(O)cc1)C(=O)N1CCC[C@H]1C(=O)N[C@@H](CO)C(=O)NCC(N)=O` [p53bp2] (Ac-EYPPYPPPPYPSG-NH2) yielded a ΔHap in assay [4] of -13.6 ± 0.24 kcal/mol. For the same compound, in [2], the “binding selectivity between hNEDD4-WW3, YAP-WW1 and YAP-WW2” value was “do not distinguish between the three WW domains”; the Kd is 4.1 µM and 5.3 µM and 9.1 µM. Also, the ΔCp in assay [2] (pH 7) is −1.59 kJ K^−1 mol^−1 and −1.59 ± 0.01 kJ K^−1 mol^−1.
For the compound “EEPPPPYED [Epstein-Barr, Epstein-Barr peptide of literature complex 2JO9]”, the Kd in assay [15] was 52 µM.
Regarding “APLpSPMpSPPGYKLV [CX43-Cter, Cx43 carboxyl terminus peptide of literature complex 2N8T]”, in [16], the Kd is 430 µM.
Take “RLDLPPYETFEDI [HECT-Cterm, HECT C-terminal peptide of literature complex 2MPT]”: the equilibrium dissociation constant (Kd) in assay [17] is 4 µM.
